Reference: US5451573A, “Substituted cyclohexane derivatives for the treatment of diseases” (Hoechst Aktiengesellschaft, priority 1992, dated 1995)
Where two headings read alike, the source gives them in different places.

What was measured:
[1] = molecular target: T1, glucose-6-phosphatase system (Rattus norvegicus, UniProt F7EWB7); test: glucose-6-phosphatase enzyme test in liver microsomes (phosphate released from glucose-6-phosphate); type: biochemical, male Wistar rats; details: for IC50: pH 7.0, 20 min room temperature, concentration at which 50 % inhibition is printed, read-out: Concentration [M] giving Inhibition 50 [%]
T1 construct: from tissue; host or cells: liver microsomes of male Wistar rats
T1 sequence (F7EWB7 1-429): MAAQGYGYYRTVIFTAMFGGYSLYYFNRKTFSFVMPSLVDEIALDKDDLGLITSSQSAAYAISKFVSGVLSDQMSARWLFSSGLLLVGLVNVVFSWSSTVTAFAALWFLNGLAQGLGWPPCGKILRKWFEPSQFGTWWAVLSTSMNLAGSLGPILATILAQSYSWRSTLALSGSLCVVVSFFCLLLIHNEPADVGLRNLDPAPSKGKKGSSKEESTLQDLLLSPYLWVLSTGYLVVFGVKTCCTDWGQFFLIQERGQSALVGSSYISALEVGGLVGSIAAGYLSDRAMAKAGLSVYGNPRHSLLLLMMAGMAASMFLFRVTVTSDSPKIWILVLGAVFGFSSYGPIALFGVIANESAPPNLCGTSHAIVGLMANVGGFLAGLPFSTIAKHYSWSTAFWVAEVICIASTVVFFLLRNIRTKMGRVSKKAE
Method: The action of the compounds according to the invention on the glucose-6-phosphatase system was investigated in an enzyme test in liver microsomes.
Fresh liver organs of male Wistar rats were used for the preparation of the microsome fraction containing the glucose-6-phosphatase and processed as described in the literature [Canfield, W. K. and Arion, W. J., J. Biol. Chem. 263, 7458-7460, (1988)]. This microsome fraction can be stored at -70° C. for at least 2 months without significant loss of activity.
The detection of the glucose-6-phosphatase activity was carried out as indicated in the literature (Arion, W. J. in Methods Enzymol. 174, Academic Press 1989, pages 58-67) by determination of the phosphate released from glucose-6-phosphate. 0.1 ml of test mixture contained glucose-6-phosphate (1 mmol/l), the test substance, 0.1 mg of microsome fraction and 100 mmol/l of HEPES buffer (4-(2-hydroxyethyl)piperazine-1-ethanesulfonic acid), pH 7.0. The reaction was started by addition of the enzyme. After 20 min had passed at room temperature, the reaction was stopped by addition of 0.2 ml of phosphate reagent. The sample was incubated at 37° C. for 30 min, and the absorption (A) of the blue color was then measured at 570 nm. The inhibitory activity of the test substance resulted by comparison with a control reaction, which contained no test substance, according to the formula [formula]

[2] = system: glucose-6-phosphatase; details: described in the literature; cited from earlier work
[3] = system: lipoxygenase; details: M. Nishizawa et al., Chem. Pharm. Bull. 34(3), 1419 (1986); cited from earlier work
[4] = rat liver microsome fraction, glucose-6-phosphate 1 mmol/l
[5] = Concentration 1 × 10^-3 M, rat liver microsome fraction, glucose-6-phosphate 1 mmol/l, pH 7.0, read-out: Inhibition [%]

| IC50 [1, 4] [M] | inhibition at 1000 µM [1, 5] [%] | SMILES | also measured |
| --- | --- | --- | --- |
| 0.00048 |  | O=C(/C=C/c1ccccc1O)O[C@@H]1C[C@](O)(C(=O)O)C[C@@H](O)[C@H]1O [Compound 9] |  |
|  | 20 | O=C(/C=C/c1ccc(O)cc1)O[C@@H]1C[C@H](C(=O)O)CC[C@H]1O [Compound 22] |  |
|  | 10 | O=C(/C=C/c1ccc(O)cc1)O[C@@H]1C[C@@](O)(C(=O)O)[C@H](O)[C@@H](O)[C@H]1O [Compound 20α] |  |
|  |  | COP(=O)(CC1=C[C@@H](O)[C@@H](O)[C@H](OC(=O)/C=C/c2ccc(O)cc2)C1)OC [Compound 27] | inhibition at 1000 µM ([1]; pH 7): 15% |
| 0.00023 |  | O=C(/C=C/c1ccc(O)cc1)O[C@@H]1C[C@H](C(=O)O)C[C@@H](O)[C@H]1O [Compound 21] |  |
| 0.00031 |  | O=C(/C=C/c1cccc(O)c1O)O[C@@H]1C[C@](O)(C(=O)O)C[C@@H](O)[C@H]1O [Compound 2] |  |
|  |  | O=C(O)c1cc(SSc2ccc([N+](=O)[O-])c(C(=O)O)c2)ccc1[N+](=O)[O-] [5,5'-dithiobis-2-nitrobenzoic acid] | non-specific inhibitor of glucose-6-phosphatase (in words) [2]: non-specific inhibitors of glucose-6-phosphatase |
| 0.00023 |  | O=C(/C=C/c1ccc(O)c(O)c1)O[C@@H]1C[C@](O)(C(=O)O)C[C@@H](O)[C@H]1O [Compound 17, chlorogenic acid] | inhibitor of lipoxygenase (in words) [3]: inhibitor of lipoxygenase; inhibitor of the glucose-6-phosphatase system (in words) [1]: inhibitors of the glucose-6-phosphatase system |
| 0.00041 |  | COc1cc(/C=C/C(=O)O[C@@H]2C[C@](O)(C(=O)O)C[C@@H](O)[C@H]2O)ccc1O [Compound 5] |  |
| 0.00053 |  | O=C(/C=C/c1cccc(O)c1)O[C@@H]1C[C@](O)(C(=O)O)C[C@@H](O)[C@H]1O [Compound 7] |  |
| 0.00046 |  | COc1ccc(/C=C/C(=O)O[C@@H]2C[C@](O)(C(=O)O)C[C@@H](O)[C@H]2O)cc1O [Compound 6] |  |
| 0.00078 |  | O=C(/C=C/c1ccsc1)O[C@@H]1C[C@](O)(C(=O)O)C[C@@H](O)[C@H]1O [Compound 13] |  |
|  | 28 | O=C(/C=C/c1ccc(O)cc1)O[C@@H]1CC(CP(=O)(O)O)=C[C@@H](O)[C@H]1O [Compound 28] |  |
|  |  | S=C=Nc1ccccc1C=Cc1ccccc1N=C=S [2,2'-diisothiocyanatostilbene] | non-specific inhibitor of glucose-6-phosphatase (in words) [2]: non-specific inhibitors of glucose-6-phosphatase |
|  | 20 | O=C(/C=C/c1cccnc1)O[C@@H]1C[C@](O)(C(=O)O)C[C@@H](O)[C@H]1O [Compound 11] |  |
| 0.00068 |  | O=C(/C=C/c1cc(O)ccc1O)O[C@@H]1C[C@](O)(C(=O)O)C[C@@H](O)[C@H]1O [Compound 3] |  |
|  | 30 | O=C(O)C[C@]1(O)C[C@@H](O)[C@@H](O)[C@H](OC(=O)/C=C/c2ccc(O)cc2)C1 [Compound 23] |  |

| IC50 [1, 4] [M] | inhibition at 1000 µM [1, 5] [%] | SMILES | also measured |
| --- | --- | --- | --- |
| 0.00031 |  | O=C(/C=C/c1ccc(O)c(O)c1O)O[C@@H]1C[C@](O)(C(=O)O)C[C@@H](O)[C@H]1O [Compound 1] |  |
|  | 35 | O=C(/C=C/c1ccc([N+](=O)[O-])cc1)O[C@@H]1C[C@](O)(C(=O)O)C[C@@H](O)[C@H]1O [Compound 16] |  |
| 0.00068 |  | COc1ccc(/C=C/C(=O)O[C@@H]2C[C@](O)(C(=O)O)C[C@@H](O)[C@H]2O)cc1OC [Compound 17α] |  |
|  | 45 | O=C(O)CC[C@]1(O)C[C@@H](O)[C@@H](O)[C@H](OC(=O)/C=C/c2ccc(O)cc2)C1 [Compound 24] |  |
| 0.00046 |  | O=C(/C=C/c1c(O)ccc2ccccc12)O[C@@H]1C[C@](O)(C(=O)O)C[C@@H](O)[C@H]1O [Compound 15] |  |
| 0.00026 |  | O=C(/C=C/c1ccc(O)cc1)O[C@@H]1C[C@](O)(C(=O)O)C[C@@H](O)[C@H]1O [Compound 8] |  |
| 0.00025 |  | O=C(/C=C/c1ccc(O)cc1)O[C@@H]1CC(C(=O)O)=C[C@@H](O)[C@H]1O [Compound 25] |  |
| 0.00068 |  | O=C(/C=C/c1ccc(O)cc1O)O[C@@H]1C[C@](O)(C(=O)O)C[C@@H](O)[C@H]1O [Compound 4] |  |
| 0.00038 |  | O=C(/C=C/c1cccs1)O[C@@H]1C[C@](O)(C(=O)O)C[C@@H](O)[C@H]1O [Compound 12] |  |
|  | 30 | O=C(/C=C/c1ccc(O)cc1)O[C@@H]1C[C@](O)(C(=O)O)[C@@H](O)[C@@H](O)[C@H]1O [Compound 20] |  |
|  | 15 | O=C(/C=C/c1ccc(O)cc1)N[C@@H]1CC(C(=O)O)=C[C@@H](O)[C@H]1O [Compound 26] |  |
| 0.00068 |  | O=C(O[C@@H]1C[C@](O)(C(=O)O)C[C@@H](O)[C@H]1O)c1ccc(OCc2ccccc2)cc1 [Compound 18] |  |
| 0.001 | 50 | O=C(/C=C/c1ccc(O)c(F)c1)O[C@@H]1C[C@](O)(C(=O)O)C[C@@H](O)[C@H]1O [Compound 10] |  |
|  |  | CC(=O)Oc1ccccc1C=Cc1ccccc1N=C=S [2-isothiocyanato-2'-acetoxystilbene] | non-specific inhibitor of glucose-6-phosphatase (in words) [2]: non-specific inhibitors of glucose-6-phosphatase |
|  |  | O=C(CCc1ccc(O)cc1)c1c(O)cc(O)cc1O[C@@H]1O[C@H](CO)[C@@H](O)[C@H](O)[C@H]1O [phlorhizin] | non-specific inhibitor of glucose-6-phosphatase (in words) [2]: non-specific inhibitors of glucose-6-phosphatase |
| 0.00092 |  | O=C(O[C@@H]1C[C@](O)(C(=O)O)C[C@@H](O)[C@H]1O)c1ccc(O)cc1 [Compound 19] |  |
|  | 20 | COc1sccc1/C=C/C(=O)O[C@@H]1C[C@](O)(C(=O)O)C[C@@H](O)[C@H]1O [Compound 14] |  |
